How the values were obtained:
Assay in all cases: relative viability (nuclei count vs DMSO), 5 days (fraction); higher = more cells survive
ALW-II-49-7 + Tozasertib = compound: Cc1ccc(C(=O)Nc2cccc(C(F)(F)F)c2)cc1Nc1cncc(C(N)=O)c1 [ALW-II-49-7] + Cc1cc(Nc2cc(N3CCN(C)CC3)nc(Sc3ccc(NC(=O)C4CC4)cc3)n2)n[nH]1 [Tozasertib] (partner 0.1 µM)
In short: (§1)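 Lung cancer cell lines in 1536-well plates were dosed by pin tool the day after seeding, either with one drug alone or with a fixed anchor-drug dose plus five library-drug doses (not always all listed) in √10 steps. After 5 days, cells were fixed and their nuclei stained in one step (final 0.05% Triton X-100, 1% formaldehyde, 1 ug/ml Hoechst), then counted on 4× images. Relative viability is the nuclei count in treated wells divided by that in vehicle wells. Values are medians of duplicate plates.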

XMD13-2 + Pemetrexed = compound: C1CC1C(=O)NC2=NNC3=C2C=CC(=C3)C4=CC(=CC=C4)C(=O)NC5CC5 [XMD13-2] + Nc1nc2[nH]cc(CCc3ccc(C(=O)N[C@@H](CCC(=O)O)C(=O)O)cc3)c2c(=O)[nH]1 [Pemetrexed] (partner 0.2 µM)
In short: as §1

Dasatinib + Palbociclib = compound: Cc1nc(Nc2ncc(C(=O)Nc3c(C)cccc3Cl)s2)cc(N2CCN(CCO)CC2)n1 [Dasatinib] + CC(=O)c1c(C)c2cnc(Nc3ccc(N4CCNCC4)cn3)nc2n(C2CCCC2)c1=O [Palbociclib] (partner 0.5 µM)
In short: as §1

XMD13-2 + Decitabine = compound: C1CC1C(=O)NC2=NNC3=C2C=CC(=C3)C4=CC(=CC=C4)C(=O)NC5CC5 [XMD13-2] + Nc1ncn([C@H]2C[C@H](O)[C@@H](CO)O2)c(=O)n1 [Decitabine] (partner 2 µM)
In short: as §1

Cell Line	relative viability (ALW-II-49-7 + Tozasertib; first compound 0.08 µM)	relative viability (ALW-II-49-7 + Tozasertib; first compound 0.253 µM)	relative viability (ALW-II-49-7 + Tozasertib; first compound 0.8 µM)	relative viability (ALW-II-49-7 + Tozasertib; first compound 2.53 µM)	relative viability (ALW-II-49-7 + Tozasertib; first compound 8 µM)	relative viability (XMD13-2 + Pemetrexed; first compound 0.05 µM)	relative viability (XMD13-2 + Pemetrexed; first compound 0.1581 µM)	relative viability (XMD13-2 + Pemetrexed; first compound 0.5 µM)	relative viability (XMD13-2 + Pemetrexed; first compound 1.581 µM)	relative viability (XMD13-2 + Pemetrexed; first compound 5 µM)	relative viability (Dasatinib + Palbociclib; first compound 0.005 µM)	relative viability (Dasatinib + Palbociclib; first compound 0.01581 µM)	relative viability (Dasatinib + Palbociclib; first compound 0.05 µM)	relative viability (Dasatinib + Palbociclib; first compound 0.1581 µM)	relative viability (Dasatinib + Palbociclib; first compound 0.5 µM)	relative viability (XMD13-2 + Decitabine; first compound 0.05 µM)	relative viability (XMD13-2 + Decitabine; first compound 0.1581 µM)	relative viability (XMD13-2 + Decitabine; first compound 0.5 µM)	relative viability (XMD13-2 + Decitabine; first compound 1.581 µM)	relative viability (XMD13-2 + Decitabine; first compound 5 µM)
NCI-H441	0.709	0.512	0.751	0.54	0.478	0.298	0.24	0.233	0.234	0.263	0.265	0.191	0.2	0.14	0.115	0.23	0.248	0.237	0.231	0.242
NCI-H460	0.354	0.597	0.421	0.273	0.0328	0.0636	0.0622	0.0651	0.0612	0.0633	0.14	0.112	0.0827	0.06	0.0635	0.607	0.513	0.54	0.552	0.454
NCI-H520	0.504	0.463	0.482	0.31	0.328	0.704	0.636	0.665	0.573	0.442	0.172	0.156	0.131	0.1	0.119	0.531	0.506	0.534	0.549	0.442
NCI-H522	0.622	0.499	0.554	0.507	0.647	1.24	1.05	1.1	1.08	0.886	1.1	0.802	0.985	0.773	0.722	0.615	0.654	0.633	0.546	0.721
NCI-H647	0.37	0.409	0.204	0.181	0.177	0.173	0.168	0.179	0.164	0.134	0.314	0.22	0.162	0.0968	0.0812	0.398	0.329	0.471	0.392	0.326
NCI-H650	0.719	0.737	0.673	0.577	0.481	0.938	0.995	1.04	0.772	0.958	0.307	0.326	0.343	0.323	0.261	0.311	0.315	0.329	0.296	0.306
NCI-H661	0.388	0.369	0.341	0.362	0.337	0.936	0.927	0.873	0.916	0.838	0.429	0.412	0.386	0.345	0.282	0.611	0.56	0.56	0.537	0.461
NCI-H838	0.245	0.274	0.264	0.259	0.265	0.249	0.226	0.263	0.251	0.254	0.193	0.156	0.182	0.148	0.141	0.386	0.414	0.477	0.436	0.387
NCI-H1355	0.523	0.519	0.445	0.404	0.434	1.04	1.05	1.06	1.06	1.1	0.36	0.282	0.299	0.244	0.224	0.358	0.385	0.386	0.379	0.375
NCI-H1395	0.746	0.825	0.736	0.779	0.631	0.93	0.998	0.879	0.876	0.911	0.594	0.588	0.535	0.443	0.304	0.845	0.738	0.753	0.661	0.706
NCI-H1437	0.35	0.387	0.383	0.41	0.391	0.336	0.326	0.343	0.323	0.329	0.353	0.331	0.335	0.302	0.277	0.604	0.569	0.541	0.55	0.578
NCI-H1648	0.382	0.236	0.243	0.313	0.382	0.702	–	0.726	0.705	0.719	0.281	0.29	0.334	0.298	0.243	0.507	–	0.515	0.475	0.579
NCI-H1650	0.364	0.437	0.374	0.313	0.293	0.351	0.388	0.348	0.418	0.395	0.282	0.12	0.184	0.138	0.177	0.363	0.457	0.413	0.409	0.52
NCI-H1651	0.608	0.852	0.543	0.566	0.377	0.607	0.56	0.577	0.647	0.775	0.523	0.494	0.514	0.4	0.36	0.642	0.642	0.63	0.609	0.81
NCI-H1666	0.609	0.603	0.569	0.612	0.498	0.863	0.919	0.875	0.884	0.946	0.661	0.594	0.637	0.656	0.632	0.738	0.734	0.689	0.666	0.735
